Test system: albino mouse ear vasculature
Assay: Phototoxicity to normal skin vasculature, Evans blue assay in albino mouse ear
Parameters: species or system Swiss-Webster mice
Conditions: in vivo; for M.E.D. (minimum effective dose to damage ear vasculature): 1440 min
Text: The major side effect of hematoporphyrin derivative preparations in tumor phototherapy is the extended phototoxicity to normal skin (by way of the exposed skin vasculature) for a month or longer after injection of therapeutic doses.
The Evans blue assay method assumes that the primary site of photodamage is the vascular system and uses Evans blue (colloidal dye) extravasation through damaged vascular wall into surrounding tissues to measure the relative phototoxicity as the minimum effective dose (M.E.D.) of photosensitizer necessary to cause a statistically significant increase in tissue Evans blue content. The higher the dose of photosensitizer required the lower the phototoxicity. […] This is possibly due in site aggregation and inhibition of the photosensitized reaction.

Substance | Relative phototoxicity at higher doses | Evans Blue Increase [%] | M.E.D. (minimum effective dose to damage ear vasculature) [mg/kg]
Photofrin | relative phototoxicity is decreased at higher doses |  | 
tetraphenyl porphyrin sulfonate [TPPS] |  | 84 | 2.5
zinc phthalocyanine sulfonate [ZPS] |  | 30 | 22

— patent publication US4882234A, “Storage-stable porphin compositions and a method for their manufacture” (Healux, Inc., priority 1986, dated 1989)
